“And” between values parts separate entries of the source, which are not always exact repeats. Equal values may be shown once.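 Dose response: 5 concentrations. Exposure: 48 h. Format: 96-well plates. Endpoint: linear interpolation; highest concentration if not reached. GI50: concentration for 50% inhibition of growth.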 The source made the active and inactive calls. Rule as the data show it: active = GI50 up to about 1.1 µM and inactive = higher.
Assays:
Test in all cases: inhibition of tumour cell growth, NCI panel, 48 h
SF-268 = test system: SF-268
SNB-75 = test system: SNB-75
NCI-H23 = test system: NCI-H23
Malme-3M = test system: Malme-3M
HL-60 = test system: HL-60
NCI-H226 = test system: NCI-H226
SF-295 = test system: SF-295
UACC-62 = test system: UACC-62
UACC-257 = test system: UACC-257
SW-620 = test system: SW-620
NCI-H460 = test system: NCI-H460
OVCAR-3 = test system: OVCAR-3
U-251 = test system: U-251
SNB-19 = test system: SNB-19
HCT-15 = test system: HCT-15
CCRF-CEM = test system: CCRF-CEM
EKVX = test system: EKVX
HOP-92 = test system: HOP-92
CAKI-1 = test system: CAKI-1
HOP-62 = test system: HOP-62
LOX IMVI = test system: LOX IMVI
KM12 = test system: KM12
RXF 631 = test system: RXF 631
A549 = test system: A549
RPMI-8226 = test system: RPMI-8226
COLO 205 = test system: COLO 205
ACHN = test system: ACHN
M14 = test system: M14
SNB-78 = test system: SNB-78
HCC 2998 = test system: HCC 2998
MOLT-4 = test system: MOLT-4
HT-29 = test system: HT-29
K562 = test system: K562
A498 = test system: A498
SR = test system: SR
786-0 = test system: 786-0
SK-MEL-28 = test system: SK-MEL-28
DLD-1 = test system: DLD-1
DMS-273 = test system: DMS-273
SF-539 = test system: SF-539
LXFL 529 = test system: LXFL 529
DMS-114 = test system: DMS-114
SN12C = test system: SN12C
NCI-H522 = test system: NCI-H522
HCT-116 = test system: HCT-116
TK-10 = test system: TK-10
SK-MEL-2 = test system: SK-MEL-2
OVCAR-5 = test system: OVCAR-5
M19-MEL = test system: M19-MEL
SK-MEL-5 = test system: SK-MEL-5
KM-20L2 = test system: KM-20L2
XF498 = test system: XF498
OVCAR-8 = test system: OVCAR-8
IGROV-1 = test system: IGROV-1
OVCAR-4 = test system: OVCAR-4
UO-31 = test system: UO-31
HOP-18 = test system: HOP-18
SK-OV-3 = test system: SK-OV-3
RXF 393 = test system: RXF 393

SMILES: COc1ccc2c(c1)CCc1cnn(C3OC(COC(C)=O)C(OC(C)=O)C(OC(C)=O)C3OC(C)=O)c1-2 (stereo not drawn)
- GI50 (SF-268): > 100 µM (inactive)
- GI50 (SNB-75): 36.6 µM (inactive)
- GI50 (NCI-H23): 69 µM (inactive)
- GI50 (Malme-3M): > 10 µM (inactive)
- GI50 (HL-60): > 100 µM (inactive)
- GI50 (NCI-H226): 79.6 µM (inactive)
- GI50 (SF-295): > 100 µM (inactive)
- GI50 (UACC-62): 66.5 µM (inactive)
- GI50 (UACC-257): > 100 µM (inactive)
- GI50 (SW-620): 18.4 µM (inactive)
- GI50 (NCI-H460): > 100 µM (inactive)
- GI50 (OVCAR-3): 23.9 µM (inactive)
- GI50 (U-251): 22.5 µM (inactive)
- GI50 (SNB-19): > 100 µM (inactive)
- GI50 (HCT-15): 38.2 µM
- GI50 (CCRF-CEM): 15 µM (inactive)
- GI50 (EKVX): 49 µM (inactive)
- GI50 (HOP-92): 27.3 µM (inactive)
- GI50 (CAKI-1): 76.2 µM (inactive)
- GI50 (HOP-62): > 100 µM (inactive)
- GI50 (LOX IMVI): > 100 µM (inactive)
- GI50 (KM12): > 100 µM (inactive)
- GI50 (RXF 631): > 100 µM (inactive)
- GI50 (A549): > 100 µM (inactive)
- GI50 (RPMI-8226): 16.7 µM (inactive)
- GI50 (COLO 205): 84.7 µM (inactive)
- GI50 (ACHN): > 100 µM (inactive)
- GI50 (M14): 56 µM (inactive)
- GI50 (SNB-78): > 100 µM (inactive)
- GI50 (HCC 2998): > 100 µM (inactive)
- GI50 (MOLT-4): 29.2 µM (inactive)
- GI50 (HT-29): 37.2 µM (inactive)
- GI50 (K562): 14.5 µM (inactive)
- GI50 (A498): > 100 µM (inactive)
- GI50 (SR): 26.1 µM (inactive)
- GI50 (786-0): 28.2 µM (inactive)
- GI50 (SK-MEL-28): 41.1 µM (inactive)
- GI50 (DLD-1): 46.8 µM (inactive)
- GI50 (DMS-273): > 100 µM (inactive)
- GI50 (SF-539): > 100 µM (inactive)
- GI50 (LXFL 529): 19.1 µM (inactive)
- GI50 (DMS-114): 65.6 µM (inactive)
- GI50 (SN12C): > 100 µM (inactive)
- GI50 (NCI-H522): 17 µM (inactive)
- GI50 (HCT-116): > 100 µM (inactive)
- GI50 (TK-10): > 100 µM (inactive)
- GI50 (SK-MEL-2): > 100 µM (inactive)
- GI50 (OVCAR-5): > 100 µM (inactive)
- GI50 (M19-MEL): 66.2 µM (inactive)
- GI50 (SK-MEL-5): 44.4 µM (inactive)
- GI50 (KM-20L2): 22.5 µM (inactive)
- GI50 (XF498): 22.6 µM (inactive)
- GI50 (OVCAR-8): > 100 µM (inactive)

SMILES: CC1OC(OC23C(=O)CC(C)(O)CC2(O)C=CC2=C3C(=O)c3ccc(C4CC(OC5CCC(OC6CC(O)C(O)C(C)O6)C(C)O5)C(O)C(C)O4)c(O)c3C2=O)CCC1O (stereo not drawn)
- GI50 (SF-268): 17 µM (inactive) and 16.4 µM (inactive)
- GI50 (SNB-75): 16.3 µM (inactive) and 16.9 µM (inactive)
- GI50 (NCI-H23): 16.4 µM (inactive) and 18.5 µM (inactive)
- GI50 (Malme-3M): 3.02 µM (inactive) and 1.57 µM (inactive)
- GI50 (HL-60): 4.42 µM (inactive) and 6.03 µM (inactive)
- GI50 (NCI-H226): 19.5 µM (inactive) and 18.6 µM (inactive)
- GI50 (UACC-62): 13.8 µM (inactive) and 16.3 µM (inactive)
- GI50 (UACC-257): 17.9 µM (inactive) and 15.2 µM (inactive)
- GI50 (SW-620): 4.86 µM (inactive) and 3.39 µM (inactive)
- GI50 (NCI-H460): 19.4 µM (inactive) and 17.6 µM (inactive)
- GI50 (U-251): 16 µM (inactive) and 17.1 µM (inactive)
- GI50 (CCRF-CEM): 6.65 µM (inactive)
- GI50 (EKVX): 18.7 µM (inactive) and 17.7 µM (inactive)
- GI50 (CAKI-1): 19.1 µM (inactive) and 19.8 µM (inactive)
- GI50 (IGROV-1): 16.5 µM (inactive) and 16.4 µM (inactive)
- GI50 (HOP-62): 27 µM (inactive) and 21.5 µM (inactive)
- GI50 (KM12): 17.5 µM (inactive) and 14.4 µM (inactive)
- GI50 (RXF 631): 12.9 µM (inactive) and 20.1 µM (inactive)
- GI50 (A549): 29.6 µM (inactive) and 25.1 µM (inactive)
- GI50 (RPMI-8226): 13.2 µM (inactive) and 10 µM (inactive)
- GI50 (COLO 205): 3.79 µM (inactive) and 2.33 µM (inactive)
- GI50 (ACHN): 17 µM (inactive) and 15.7 µM (inactive)
- GI50 (M14): 18.2 µM (inactive) and 13.8 µM (inactive)
- GI50 (SNB-78): 17.3 µM (inactive) and 17.7 µM (inactive)
- GI50 (HCC 2998): 13.9 µM (inactive) and 16.2 µM (inactive)
- GI50 (MOLT-4): 5.71 µM (inactive)
- GI50 (HT-29): 12.8 µM (inactive) and 19.5 µM (inactive)
- GI50 (K562): 14.5 µM (inactive) and 9.4 µM (inactive)
- GI50 (SR): > 100 µM (inactive)
- GI50 (786-0): 17.4 µM (inactive) and 15.8 µM (inactive)
- GI50 (SK-MEL-28): 15.5 µM (inactive) and 14.3 µM (inactive)
- GI50 (DLD-1): 11.1 µM (inactive) and 13.6 µM (inactive)
- GI50 (SF-539): 17.7 µM (inactive) and 17.3 µM (inactive)
- GI50 (LXFL 529): 15.4 µM (inactive) and 11.5 µM (inactive)
- GI50 (SN12C): 18.3 µM (inactive) and 16.5 µM (inactive)
- GI50 (NCI-H522): 1.94 µM (inactive) and 2.05 µM (inactive)
- GI50 (OVCAR-4): 16.4 µM (inactive) and 19.1 µM (inactive)
- GI50 (TK-10): 21.6 µM (inactive) and 17.7 µM (inactive)
- GI50 (SK-MEL-2): 16.7 µM (inactive) and 16.3 µM (inactive)
- GI50 (UO-31): 18 µM (inactive) and 18.4 µM (inactive)
- GI50 (OVCAR-5): 19.1 µM (inactive) and 20.6 µM (inactive)
- GI50 (SK-MEL-5): 19 µM (inactive) and 16.1 µM (inactive)
- GI50 (HOP-18): 17.5 µM (inactive) and 17.1 µM (inactive)
- GI50 (KM-20L2): 19.1 µM (inactive) and 19.7 µM (inactive)
- GI50 (XF498): 18.2 µM (inactive) and 18.9 µM (inactive)
- GI50 (SK-OV-3): 28.1 µM (inactive) and 17.9 µM (inactive)

SMILES: COc1ccc(/C=C/C(=O)c2sc(NC(=S)NC(=O)c3ccc(Cl)cc3)nc2C)cc1OC
- GI50 (SF-268): 94.8 µM (inactive)
- GI50 (NCI-H23): 33.5 µM (inactive)
- GI50 (Malme-3M): 37.2 µM (inactive)
- GI50 (HL-60): 30.3 µM (inactive)
- GI50 (NCI-H226): 37.2 µM (inactive)
- GI50 (SF-295): 77.4 µM (inactive)
- GI50 (UACC-62): 18.4 µM (inactive)
- GI50 (UACC-257): 47.5 µM (inactive)
- GI50 (SW-620): 55.7 µM (inactive)
- GI50 (NCI-H460): 84.7 µM (inactive)
- GI50 (OVCAR-3): 38.4 µM (inactive)
- GI50 (U-251): 34.6 µM (inactive)
- GI50 (SNB-19): 40.5 µM (inactive)
- GI50 (HCT-15): 35 µM
- GI50 (CCRF-CEM): 26.2 µM (inactive)
- GI50 (EKVX): 66.8 µM (inactive)
- GI50 (CAKI-1): 75.9 µM (inactive)
- GI50 (IGROV-1): 43.1 µM (inactive)
- GI50 (HOP-62): 47.5 µM (inactive)
- GI50 (LOX IMVI): 32.2 µM (inactive)
- GI50 (KM12): 59.2 µM (inactive)
- GI50 (RXF 631): 48.6 µM (inactive)
- GI50 (RXF 393): 95.5 µM (inactive)
- GI50 (A549): 43 µM (inactive)
- GI50 (RPMI-8226): 24 µM (inactive)
- GI50 (COLO 205): 37.2 µM (inactive)
- GI50 (ACHN): 59.6 µM (inactive)
- GI50 (M14): 52.6 µM (inactive)
- GI50 (SNB-78): 54.3 µM (inactive)
- GI50 (HCC 2998): > 100 µM (inactive)
- GI50 (MOLT-4): 27.2 µM (inactive)
- GI50 (HT-29): 88.1 µM (inactive)
- GI50 (K562): 27.4 µM (inactive)
- GI50 (SR): 32 µM (inactive)
- GI50 (786-0): 83.8 µM (inactive)
- GI50 (SK-MEL-28): 35.9 µM (inactive)
- GI50 (DLD-1): 49.4 µM (inactive)
- GI50 (SF-539): 60.4 µM (inactive)
- GI50 (LXFL 529): 32.2 µM (inactive)
- GI50 (DMS-114): 41.6 µM (inactive)
- GI50 (SN12C): 36.6 µM (inactive)
- GI50 (NCI-H522): > 10 µM (inactive)
- GI50 (OVCAR-4): 52.5 µM (inactive)
- GI50 (HCT-116): 51.4 µM (inactive)
- GI50 (TK-10): > 100 µM (inactive)
- GI50 (SK-MEL-2): 47.1 µM (inactive)
- GI50 (UO-31): 64 µM (inactive)
- GI50 (OVCAR-5): > 100 µM (inactive)
- GI50 (M19-MEL): 53.2 µM (inactive)
- GI50 (HOP-18): 5.89 µM (inactive)
- GI50 (KM-20L2): > 100 µM (inactive)
- GI50 (XF498): 34.8 µM (inactive)
- GI50 (OVCAR-8): 43.9 µM (inactive)
- GI50 (SK-OV-3): > 100 µM (inactive)

Source: ChEMBL document CHEMBL1201862, “PubChem BioAssay data set” (2004)
